Laboratory results reported in patent US8410150B2, “Inhibitors of carnitine palmitoyltransferase and treating cancer” (University Health Network, priority 2007, dated 2013).

Target: T1, human CPT1A (Homo sapiens, UniProt P50416)
T1 construct: made in house; host or cells: Saccharomyces cerevisiae (pESC-trp) or cultured mammalian cells (pCDNA3.1); mitochondrial extract
T1 sequence (P50416 1-773): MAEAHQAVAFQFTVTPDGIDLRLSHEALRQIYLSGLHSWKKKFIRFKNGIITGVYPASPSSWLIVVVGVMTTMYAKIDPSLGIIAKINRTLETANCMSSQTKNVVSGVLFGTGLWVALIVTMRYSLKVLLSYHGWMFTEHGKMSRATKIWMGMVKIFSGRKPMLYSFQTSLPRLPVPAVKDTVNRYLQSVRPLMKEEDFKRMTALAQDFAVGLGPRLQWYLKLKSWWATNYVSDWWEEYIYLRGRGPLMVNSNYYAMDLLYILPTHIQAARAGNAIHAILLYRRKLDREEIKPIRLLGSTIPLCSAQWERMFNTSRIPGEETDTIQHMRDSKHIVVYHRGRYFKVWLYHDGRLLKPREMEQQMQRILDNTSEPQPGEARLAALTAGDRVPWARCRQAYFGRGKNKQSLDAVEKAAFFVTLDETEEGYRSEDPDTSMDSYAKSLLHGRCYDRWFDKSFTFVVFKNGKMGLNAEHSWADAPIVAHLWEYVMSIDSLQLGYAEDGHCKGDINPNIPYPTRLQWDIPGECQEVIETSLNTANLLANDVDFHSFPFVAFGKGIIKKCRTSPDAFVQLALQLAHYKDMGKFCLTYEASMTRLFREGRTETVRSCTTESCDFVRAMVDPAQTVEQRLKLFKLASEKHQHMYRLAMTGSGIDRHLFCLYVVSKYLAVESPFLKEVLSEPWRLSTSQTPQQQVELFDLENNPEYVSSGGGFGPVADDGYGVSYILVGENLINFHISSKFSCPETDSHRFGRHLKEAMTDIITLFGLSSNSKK
Test: Human CPT1A LC/MS assay
Format: biochemical
Conditions: human CPT1A LC/MS assay, dose response format
Text: Nucleotide sequences encoding human CPT1 enzymes were individually cloned into the yeast expression vector pESC-trp at the Cla1 (5′ terminus) and Pac1 (3′ terminus) restriction sites by PCR amplification of the open reading frame using oligonucleotide primers designed to encode the wild-type CPT1 protein sequence. Standard molecular biology techniques were used to transform and express the CPT1 proteins in the yeast Saccharomyces cerevisiae. The yeast cells were lysed by enzymatic degradation of the cell wall by Zymolase, and the mitochondria were isolated by standard biochemical techniques. The integrity of the isolated mitochondria was monitored by determining the activity of succinate dehydrogenase in the mitochondrial preparations. The mitochondrial extracts were stored at −80° C. in buffer containing 10 mM HEPES pH 7.4 and 250 mM sucrose.
Human CPT1 (A, B, C) genes were additionally cloned into the pCDNA3.1 vector individually for expression in cultured mammalian cells. Cells expressing the exogenous CPT1A were identified and grown under standard conditions. Mammalian cells were harvested, and mitochondrial extracts prepared using standard biochemical methods. The mitochondrial extracts were stored at −80° C. in buffer containing 10 mM HEPES pH 7.4 and 250 mM sucrose.
Assays were performed in 96-well plate format. Each 100 μL reaction contained 40 mM KCl, 50 mM TrisHCl pH 7.5, and 250 mM mannitol (Assay Buffer), and 1.6 μg protein of an extract, 20 μM palmitoyl-CoA, 50 μM L-carnitine, and 10 ug/mL BSA. Reactions were incubated at room temperature and stopped after 10 minutes by extraction with 200 μL of water saturated n-butanol containing myristoyl carnitine (500 nM) as an internal standard. The samples were thoroughly mixed, and the phases separated by centrifugation. Samples were prepared for analysis with a 10 fold dilution of the n-butanol phase containing the reaction product palmitoyl carnitine into a 50:50 (acetonitrile:water) solvent for analysis. […] of prepared sample was separated on a Phenomenex Jupiter 5μ C4 reverse-phase column using an Agilent 1100 HPLC with a gradient from 50% acetonitrile (0.5% acetic acid) to 100% acetonitrile and quantified by detection with a Bruker Esquire 3000plus mass spectrometer. The abundance of the palmitoyl carnitine product was determined relative to the internal standard and the actual quantity of palmitoyl carnitine can be determined from a standard curve prepared using the n-butanol solution containing the internal standard.
Compounds were evaluated in two formats, a screening format, and a dose response format. The screening format was performed by adding 25 μL compound in 20% DMSO and Assay Buffer to 25 μL of extract containing […] and Assay Buffer, followed by a 10 minute incubation at room temperature. 50 μL of 40 μM palmitoyl-CoA in Assay Buffer was added to the reaction mixture, mixed and incubated for 10 minutes at room temperature. A negative control for activity was also performed where the carnitine was omitted from the reaction. A positive control for activity was also performed by omitting compound from the solution containing 20% DMSO and Assay Buffer. The reaction mixture was extracted and analyzed as described above. The inhibition by compound was determined by comparing the control relative activity to the relative activity observed in wells containing the compound. Relative activity was determined by subtracting the relative intensity (area palmitoyl carnitine/area myristoyl carnitine) observed in the negative control from the relative intensity observed in the experimental well, and dividing by the relative activity observed in the positive control.
[formula] Compound characterization by dose response format was performed using the above described assay conditions and a 16 point compound titration in 2 fold compound dilution steps. The DMSO concentration was kept constant at 20% (v/v) for all compound concentrations.

Row | SMILES | IC50
1 | C[N+](C)(C)C[C@@H](CC(=O)O)NC(=O)c1ccc(CCc2ccccc2)s1 [Example S45, (R)-3-(5-phenethylthiophene-2-carboxamido)-4-(trimethylammonio)-butanoate] | ≤ 1 µM
2 | C[N+](C)(C)C[C@@H](CC(=O)[O-])NC(=O)c1ccc(Oc2ccccc2)nc1 [Example S50, (R)-3-(6-phenoxynicotinamido)-4-(trimethylammonio)butanoate] | 100 to 1000 µM
3 | Cn1nc(C(F)(F)F)cc1-c1ccc(S(=O)(=O)N[C@H](CC(=O)O)C[N+](C)(C)C)s1 [Example S72, (R)-3-carboxy-N,N,N-trimethyl-2-(5-(1-methyl-3-(trifluoromethyl)-1H-pyrazol-5-yl)thiophene-2-sulfonamido)propan-1-aminium 2,2,2-trifluoroacetate] | 100 to 1000 µM
4 | COc1ncc(C#Cc2ccc(C(=O)N[C@H](CC(=O)O)C[N+](C)(C)C)o2)cn1 [Example S117] | 100 to 1000 µM
5 | CCCCCCCCOc1ccc(NS(=O)(=O)N[C@H](CC(=O)[O-])C[N+](C)(C)C)cc1 [Example S103, (R)-3-(N-(4-(octyloxy)phenyl)sulfamoylamino)-4-(trimethylammonio) butanoate] | ≤ 1 µM
6 | CCCCCc1ccc(CCc2ccc(C(=O)N[C@H](CC(=O)O)C[N+](C)(C)C)s2)cc1 [Example S102, (R)-3-carboxy-N,N,N-trimethyl-2-(5-(4-pentylphenethyl)thiophene-2-carboxamido)propan-1-aminium 2,2,2-trifluoroacetate] | ≤ 1 µM
7 | C[N+](C)(C)C[C@@H](CC(=O)O)NC(=O)Nc1ccc(C(=O)c2ccccc2)cc1 [Example S16, (R)-2-(3-(4-Benzoylphenyl)ureido)-3-carboxy-N,N,N-trimethylpropan-1-aminium acetate] | 10 to 100 µM
8 | Cc1ccc(C#Cc2ccc(S(=O)(=O)N[C@H](CC(=O)O)C[N+](C)(C)C)s2)cc1 [Example S80, (R)-3-carboxy-N,N,N-trimethyl-2-(5-(p-tolylethynyl)thiophene-2-sulfonamido)propan-1-aminium 2,2,2-trifluoroacetate] | 10 to 100 µM
9 | CCCCCCC#Cc1cccc(NS(=O)(=O)N[C@H](CC(=O)[O-])C[N+](C)(C)C)c1 [Example S110, (R)-3-(N-(3-(oct-1-ynyl)phenyl)sulfamoylamino)-4-(trimethylammonio) butanoate] | 10 to 100 µM
10 | CCCCCc1ccc(CCC2CCC(C(=O)N[C@H](CC(=O)[O-])C[N+](C)(C)C)O2)cc1 (stereo partly drawn) [Example S121, (3R)-3-(5-(4-pentylphenethyl)tetrahydrofuran-2-carboxamido)-4-(trimethylammonio)butanoate] | 1 to 10 µM
11 | CCCCCCCCc1cccc(N(C)S(=O)(=O)N[C@H](CC(=O)O)C[N+](C)(C)C)c1 [Example S113, (R)-3-carboxy-N,N,N-trimethyl-2-(N-methyl-N-(3-octylphenyl)sulfamoylamino)propan-1-aminium 2,2,2-trifluoroacetate] | 1 to 10 µM
12 | C[N+](C)(C)C[C@@H](CC(=O)O)NC(=O)c1ccc(C#Cc2ccsc2)s1 [Example S97, (R)-3-carboxy-N,N,N-trimethyl-2-(5-(thiophen-3-ylethynyl)thiophene-2-carboxamido)propan-1-aminium 2,2,2-trifluoroacetate] | ≤ 1 µM
13 | C[N+](C)(C)C[C@@H](CC(=O)O)NC(=O)c1ccc(NS(=O)(=O)c2cccs2)cc1 [Example S2, (R)-3-(4-(thiophene-2-sulfonamido)benzamido)-4-(trimethylammonio)-butanoate] | 100 to 1000 µM
14 | C[N+](C)(C)C[C@@H](CC(=O)O)NC(=O)c1ccc(C#Cc2ccsc2)o1 [Example S116, (R)-3-carboxy-N,N,N-trimethyl-2-(5-(thiophen-3-ylethynyl)furan-2-carboxamido)propan-1-aminium 2,2,2-trifluoroacetate] | 10 to 100 µM
15 | CCCCCCCc1ccc(NS(=O)(=O)N[C@H](CC(=O)[O-])C[N+](C)(C)C)cc1 [Example S27, (R)-3-(N-(4-heptylphenyl)sulfamoylamino)-4-(trimethylammonio)-butanoate] | ≤ 1 µM
16 | C[N+](C)(C)C[C@@H](CC(=O)[O-])NC(=O)c1cccc(C#Cc2ccccc2)c1 [Example S48, (R)-3-(3-(phenylethynyl)benzamido)-4-(trimethylammonio)butanoate] | 100 to 1000 µM
17 | CCCCCc1ccc(NS(=O)(=O)N[C@H](CC(=O)O)C[N+](C)(C)C)cc1 [Example S91, (R)-3-(N-(4-pentylphenyl)sulfamoylamino)-4-(trimethylammonio)butanoate] | ≤ 1 µM
18 | C[N+](C)(C)C[C@@H](CC(=O)[O-])NC(=O)c1ccc(CSCc2ccccc2)o1 [Example S56, (R)-3-(5-(benzylthiomethyl)furan-2-carboxamido)-4-(trimethylammonio)-butanoate] | 1 to 10 µM
19 | CCCCCCOc1cccc(OCCCCCN(C)S(=O)(=O)N[C@H](CC(=O)[O-])C[N+](C)(C)C)c1 [Example S109, (R)-3-(N-(5-(3-(hexyloxy)phenoxy)pentyl)-N-methylsulfamoylamino)-4-(trimethylammonio)butanoate] | ≤ 1 µM
20 | C[N+](C)(C)C[C@@H](CC(=O)[O-])NC(=O)c1ccc(CN2CCOCC2)o1 [Example S59, (R)-3-(5-(morpholinomethyl)furan-2-carboxamido)-4-(trimethylammonio)-butanoate] | 1000 to 2500 µM
21 | C[N+](C)(C)C[C@@H](CC(=O)O)NC(=O)Nc1ccc(-c2ccccc2)cc1 [Example S17, (R)-2-(3-Biphenyl-4-ylureido)-3-carboxy-N,N,N-trimethylpropan-1-aminium acetate] | 100 to 1000 µM
22 | C[N+](C)(C)C[C@@H](CC(=O)O)NS(=O)(=O)c1ccc(CCc2ccccc2)s1 [Example S79, (R)-3-carboxy-N,N,N-trimethyl-2-(5-phenethylthiophene-2-sulfonamido)-propan-1-aminium 2,2,2-trifluoroacetate] | 10 to 100 µM
23 | C[N+](C)(C)C[C@@H](CC(=O)O)NC(=O)Nc1ccc(OCc2ccccc2)cc1 [Example S12, (R)-3-(3-(4-(Benzyloxy)phenyl)ureido)-4-(trimethylammonio)butanoate acetate] | 100 to 1000 µM
24 | CCCCCCc1ccc(CCc2ccc(C(=O)N[C@H](CC(=O)O)C[N+](C)(C)C)o2)s1 [Example S119, (R)-3-(5-(2-(5-hexylthiophen-2-yl)ethyl)furan-2-carboxamido)-4-(trimethylammonio)butanoate] | ≤ 1 µM
25 | CCCOc1ccc(C(=O)N[C@H](CC(=O)[O-])C[N+](C)(C)C)cc1 [Example S1, (R)-3-(4-propoxybenzamido)-4-(trimethylammonio)butanoate] | 100 to 1000 µM
